The values below come from PMC12615753, “Glutathione as a taste modulator: molecular mechanisms of interaction with umami and sweet taste receptors” (Food Chemistry: Molecular Sciences, 2025).

Experiment [1] has as its system TAS1R1/TAS1R3. As to conditions: ref Broadhead et al., 2011; Servant & Frerot, 2022; cited from earlier work.
Experiment [2] addresses T1, hTAS1R1/hTAS1R3(r1–575) (Homo sapiens, UniProt Q7RTX1).
T1 construct: UniProtKB number Q7RTX1–1); expressed in transfected cells; host or cells: HEK293T/17 (inferred from the general method)
Put plainly: Calcium assay, chimeric TAS1R3 co-expressed with hTAS1R1. In kind it is cell-based, rat. As to conditions: data not shown. The text has this:
Chimeric Gα proteins, such as Gα16Gust44, Gα16Gi3 or Gα15i2, are widely used in the functional expression of TAS1R receptors ([Backes et al., 2015]; [Suess et al., 2015]; [Toda et al., 2021], [Toda et al., 2013], [Toda et al., 2018]; [Zhang et al., 2008]). Chimeric Gα15i2 (([Toda et al., 2013]), Supplementary data) was generated by replacing the last five residues of the C-terminal tail of rat Gα15i2 (EINLL) (UniProt number G3V6N8; https://www.uniprot.org/uniprot/) with the counterpart sequence from human GNAI2 (DCGLF) (UniProt number P04899-1) and cloning into the pcDNA3.1/Hygro vector (Invitrogen, Thermo Fisher Scientific, Illkirch, France) between the HindIII and NotI restriction sites, resulting in the plasmid pcDNA3.1-Gα15i2. Chimeric Gα16Gust44 construct have already been reported ([Raliou et al., 2011]). Briefly, Gα16Gust44 was generated by replacing the C-terminal of Gα16 with the C-terminal 44 residues of gustducin. As previously described, hTAS1R1 was amplified from human fungiform papillae cDNA and cloned and inserted into pcDNA3 (Invitrogen), generating pcDNA3-TAS1R1-WT (wild-type) ([Raliou et al., 2011]). […]

T1 sequence (Q7RTX1 21-841): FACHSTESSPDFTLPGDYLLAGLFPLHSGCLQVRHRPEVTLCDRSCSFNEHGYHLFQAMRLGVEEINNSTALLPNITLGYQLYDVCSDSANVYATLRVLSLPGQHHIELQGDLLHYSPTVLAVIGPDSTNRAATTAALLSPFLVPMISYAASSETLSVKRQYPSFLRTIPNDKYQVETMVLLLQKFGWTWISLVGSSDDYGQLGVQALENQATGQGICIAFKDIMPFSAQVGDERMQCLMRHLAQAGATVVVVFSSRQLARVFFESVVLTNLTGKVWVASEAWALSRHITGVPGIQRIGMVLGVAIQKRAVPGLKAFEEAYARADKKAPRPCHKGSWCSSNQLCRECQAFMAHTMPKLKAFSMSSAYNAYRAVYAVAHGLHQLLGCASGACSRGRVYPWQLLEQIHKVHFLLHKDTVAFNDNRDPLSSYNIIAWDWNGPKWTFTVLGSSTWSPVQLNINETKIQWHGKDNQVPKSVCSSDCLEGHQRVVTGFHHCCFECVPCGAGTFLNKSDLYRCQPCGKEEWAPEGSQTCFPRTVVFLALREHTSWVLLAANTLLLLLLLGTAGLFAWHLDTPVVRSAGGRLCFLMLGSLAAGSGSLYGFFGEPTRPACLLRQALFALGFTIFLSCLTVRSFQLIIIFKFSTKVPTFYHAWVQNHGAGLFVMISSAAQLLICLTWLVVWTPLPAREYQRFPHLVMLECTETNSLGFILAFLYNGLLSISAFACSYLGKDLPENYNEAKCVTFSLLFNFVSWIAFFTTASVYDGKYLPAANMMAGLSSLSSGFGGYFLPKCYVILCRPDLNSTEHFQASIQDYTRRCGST

The term EC50 denotes the midpoint of the concentration-response curve. For the compound `N[C@@H](CCC(=O)N[C@@H](CS)C(=O)NCC(=O)O)C(=O)O` [GSH, γ-L-glutamyl-L-cysteinyl-glycine], the EC50 in experiment [1] is 11.3 mM. Turning to `N[C@@H](CCC(=O)O)C(=O)O` [L-Glu, L-glutamic acid, reference compound], the “response of the receptor” value in experiment [2] is “did not respond”.
